Reference: patent US4415574A, “Soluble N2 substituted derivatives of 2,4-diamino 5-benzyl pyrimidine, process for their preparation and medicaments containing them” (S. A. Panmedica, priority 1981, dated 1983)

Key:
Format in all cases: cell-based
COLI [1] = experiment: Inhibiting minimum concentration (I.M.C.), activity relative to trimethoprime, OXOIDE COLI MEDIUM 4; conditions: for % activity with respect to the base: ratio of I.M.C. to trimethoprime; for % activity with respect to the base corrected by molecular weight: ratio to trimethoprime
Description: (§1) The antibacterial activity of the derivatives according to the invention were tested in vitro by determining the inhibiting minimum concentrations (I.M.C.) on different germs.

COLI [2] = experiment: Inhibiting minimum concentration (I.M.C.), activity relative to trimethoprime, MULLER HINTON COLI MEDIUM 4; conditions: for % activity with respect to the base: ratio of I.M.C. to trimethoprime; for % activity to the base corrected by molecular weight: ratio to trimethoprime
Description: as §1

BACIL PUMILUS = experiment: Inhibiting minimum concentration (I.M.C.), activity relative to trimethoprime, MULLER HINTON BACIL PUMILUS MEDIUM; conditions: for % activity with respect to the base: ratio of I.M.C. to trimethoprime; for % activity with respect to the base corrected by molecular weight: ratio to trimethoprime
Description: as §1

Structure (SMILES) | % activity with respect to the base (COLI [1]) [%] | % activity with respect to the base corrected by molecular weight (COLI [1]) [%] | % activity with respect to the base (COLI [2]) [%] | % activity to the base corrected by molecular weight (COLI [2]) [%] | % activity with respect to the base (BACIL PUMILUS) [%] | % activity with respect to the base corrected by molecular weight (BACIL PUMILUS) [%]
COc1cc(Cc2cnc(NCS(=O)(=O)O)nc2N)cc(OC)c1OC [Example 1, N2 Methane Sulfonic Acid of 2,4-Diamino 5-(3,4,5-TrimethoxyBenzyl) Pyrimidine] | 17.1 | 24 | 0.3 | 0.4 | 0.1 | –
COc1cc(Cc2cnc(NC(C)S(=O)(=O)O)nc2N)cc(OC)c1OC (stereo not shown) [Example 2, N2 Ethane Sulfonic acid of 2,4-Diamino 5-(3,4,5-Trimethoxy Benzyl) Pyrimidine] | 4 | 5.8 | 4.3 | 6.2 | 2.8 | 4
CCCC(Nc1ncc(Cc2cc(OC)c(OC)c(OC)c2)c(N)n1)S(=O)(=O)O (stereo not shown) [Example 3, N2 Butane Sulfonic Acid of 2,4-Diamino 5-(3,4,5-Trimethoxy Benzyl) Pyrimidine] | 18.35 | 28 | 4.55 | 10.8 | 2.9 | 6.8
COc1cc(Cc2cnc(NC(C(C)C)S(=O)(=O)O)nc2N)cc(OC)c1OC (stereo not shown) [Example 4, N2 (2-Methyl) Propane Sulfonic Acid of 2,4-Diamino 5-(3,4,5-Trimethoxy Benzyl) Pyrimidine] | 12.9 | 20 | 14.1 | 22 | 11.8 | 18
COc1cc(Cc2cnc(NC(C(C)(C)C)S(=O)(=O)O)nc2N)cc(OC)c1OC (stereo not shown) [Example 5, N2 (2,2-Dimethyl) Propane Sulfonic Acid of 2,4-Diamino 5-(3,4,5-Trimethoxy Benzyl) Pyrimidine] | 18.4 | 29 | 23.3 | 37 | 19.4 | 30
CCC(C)C(C)C(Nc1ncc(Cc2cc(OC)c(OC)c(OC)c2)c(N)n1)S(=O)(=O)O (stereo not shown) [Example 6, N2 (2,3-Dimethyl) Pentane Sulfonic Acid of 2,4-Diamino 5-(3,4,5-Trimethoxy Benzyl) Pyrimidine] | 18.8 | 32 | 15.75 | 27 | 16.6 | 28
CCC(CC)C(Nc1ncc(Cc2cc(OC)c(OC)c(OC)c2)c(N)n1)S(=O)(=O)O (stereo not shown) [Example 7, N2 (2-Ethyl) Butane Sulfonic Acid of 2,4-Diamino 5-(3,4,5-Trimethoxy Benzyl) Pyrimidine] | 14 | 23 | 15.5 | 25 | 14 | 23
COc1cc(Cc2cnc(NC(c3ccccc3O)S(=O)(=O)O)nc2N)cc(OC)c1OC (stereo not shown) [Example 25c, N2 (2-HYDROXY) PHENYL METHANE SULFONIC ACID OF 5-(3,4,5-TRIMETHOXY BENZYL) 2,4-DIAMINO PYRIMIDINE] | – | – | 57 | 116 | – | –
